Where a name gives a salt, the structure may show the parent alone.
Columns and labels:
DDR1 = biological target: T1, DDR1 (Homo sapiens, UniProt Q08345); assay: Measurement of DDR1 inhibitory activity (LanthaScreen system, in vitro test); type: binding; conditions: GST-DDR1, Kinase tracer 178
T1 construct: purchased Invitrogen
Procedure: Biological Experiment Example 1: Measurement of an DDR1 Inhibitory Activity (In Vitro Test)
An DDR1 enzyme inhibitory activity was measured by using LanthaScreen (registered trademark) system (Invitrogen) based on the attached instruction. The reagents used are shown below.
Assay buffer: 5× Kinase buffer A (Invitrogen) was diluted 5-fold with ddH2O.
1× Kinase Buffer A: 50 mmol/L HEPES pH 7.5, 10 mmol/L MgCl2, 1 mmol/L EGTA, 0.01% Brij-35.
2×DDR1 Solution: a solution containing […] GST-DDR1 (Invitrogen) was prepared by using Assay buffer.
2× Tracer/antibody solution: a solution containing 20 nmol/L Kinase tracer 178 (Invitorgen) and […] Eu-Anti-GST Antibody (Invitorogen) was prepared by using Assay buffer. Test compound solution: a solution containing a test compound of 2-fold concentration with respect to the final concentration was prepared by 50-fold diluting a DMSO solution of test compound of each concentration with the Assay buffer.
• 1 Add 5 μL 2×DDR1 Solution to proxiplate (PerkinElmer) • 2 Add 5 μL test compound solution to proxiplate • 3 Incubate for 15 min at RT • 4 Add 5 μL 2× Tracer/Antibody solution to all well Incubate 1 h at RT • 6 Read LANCE Eu on Envision (PerkinElmer) (Ex: 320 nm/Em 665 nm & 615 nm)
In the low control group, 5 μL Assay buffer was added instead of 5 μL 2×DDR1 Solution and the final 1% DMSO solution was added instead of test compound solution.
In the high control group, the final 1% DMSO solution was added instead of test compound solution.
(§1) The inhibition rate (%) in the test compound group was calculated based on the following mathematical formula.
% inhibition=100−100*(assay value of test compound−A)/(B−A) [Math. 1]
A: average value of low control group B: average value of high control group
Values of 50% inhibition rate (IC50 values) of the test compound were calculated from the inhibition curve based on the inhibition rate of the test compounds in each concentration.

[1] = biological target: T2, DDR1 phosphorylation in T-47D (ATCC, HTB-133) cells (Homo sapiens, UniProt Q08345); assay: Measurement of DDR1 phosphorylation suppression rate by using T-47D cells (p-DDR1 ELISA); type: cell-based; conditions: collagen Type I 10 μg/ml, p-DDR1 (panTyr) ELISA
T2 construct: host or cells: T-47D
Procedure: Biological Example 2: Measurement of DDR1 Phosphorylation Suppression Rate by Using T-47D (ATCC, HTB-133) cells
T-47D cells should be in culture for at least 7 days before using in the assay.
Cell culture medium: RPMI 1640 (HyClone) containing 10% Heat-FBS (HyClone) was prepared.
Assay medium: RPMI 1640 containing 0.1% BSA (solarbio) was prepared.
Collagen Type I (rat tail) solution: Assay medium containing 200 μg/mL Collagen I, rat tail (Gibco) was prepared.
Cell lysis buffer: a solution containing IX cell lysis buffer (CST) and 1× protease and phosphatase inhibitor cocktail (Thermofisher) was prepared by using ddH2O.
• 1. Collect cells into tubes and centrifuge at 1200 rpm for 5 min, at room temperature. Re-suspend the cells in cell culture medium pre-warmed to room temperature. • 2. Count cells and suspend at a density of 2×10^5/ml of cell culture medium. Plate the cells at 100 μL per well (Corning 3599 96-well plate, 2×10^4 cells per well final), mixing the cells well between each draw of the pipettor. • 3. Put lid on cell plate and place into the incubator at 37° C., 5% CO2 • 4. Culture cell overnight
• 1. Remove the plate from the incubator • 2. Cell medium is replaced with the 90 μL Assay medium.
• 1. Compound plates are pre-titrated using DMSO (10-fold dilution for 6 points) • 2. Dilute test compound using assay medium; Transfer 1 μL compound to other 96 well plate and then add 49 μL assay medium to each well (50 fold dilution). • 3. Add 5 μL the diluted test compound solution to the appropriate wells by pipettor. Compound final concentration is start from […] and DMSO final concentration is 0.1 • 4. Tap the plates gently to mix in compound. Reseal the plate with a lid and place in the incubator again, for 24 h.
• 1. Diluted collagen Type I in assay medium to the 200 μg/ml concentration • 2. Using the pipettor adds 5 μL of 200 μg/mL collagen Type I solution to the cell plate (compound well and High control well, collagen final conc. is 10 μg/ml). Add assay medium buffer to the control wells (low control well) • 3. Reseal the plate with a lid and place in the incubator. Incubate 24 h for collagen type I
• 1. After incubation, add 100 µL per well Cell lysis buffer. • 2. Incubate 30 min on ice, then freezing to −80° C. to get the fully cell lysates. • 3. Transfer cell lysates to new plate • 4. Centrifuge for 30 min (×4000 rpm) at 4° C. Then transfer the supernatant to a new plate.
p-DDR1 (panTyr) ELISA kit (CST) was used in the study. The measurement was carried out according to the attached instruction.
as §1
% inhibition=100−100*(assay value of test compound−A)/(B−A) [Math. 2]
A: average value of low control group B: average value of high control group Values of 50% inhibition rate (IC50 values) of the test compound were calculated from the inhibition curve based on the inhibition rate of the test compounds in each concentration.

T2 sequence (Q08345 19-913): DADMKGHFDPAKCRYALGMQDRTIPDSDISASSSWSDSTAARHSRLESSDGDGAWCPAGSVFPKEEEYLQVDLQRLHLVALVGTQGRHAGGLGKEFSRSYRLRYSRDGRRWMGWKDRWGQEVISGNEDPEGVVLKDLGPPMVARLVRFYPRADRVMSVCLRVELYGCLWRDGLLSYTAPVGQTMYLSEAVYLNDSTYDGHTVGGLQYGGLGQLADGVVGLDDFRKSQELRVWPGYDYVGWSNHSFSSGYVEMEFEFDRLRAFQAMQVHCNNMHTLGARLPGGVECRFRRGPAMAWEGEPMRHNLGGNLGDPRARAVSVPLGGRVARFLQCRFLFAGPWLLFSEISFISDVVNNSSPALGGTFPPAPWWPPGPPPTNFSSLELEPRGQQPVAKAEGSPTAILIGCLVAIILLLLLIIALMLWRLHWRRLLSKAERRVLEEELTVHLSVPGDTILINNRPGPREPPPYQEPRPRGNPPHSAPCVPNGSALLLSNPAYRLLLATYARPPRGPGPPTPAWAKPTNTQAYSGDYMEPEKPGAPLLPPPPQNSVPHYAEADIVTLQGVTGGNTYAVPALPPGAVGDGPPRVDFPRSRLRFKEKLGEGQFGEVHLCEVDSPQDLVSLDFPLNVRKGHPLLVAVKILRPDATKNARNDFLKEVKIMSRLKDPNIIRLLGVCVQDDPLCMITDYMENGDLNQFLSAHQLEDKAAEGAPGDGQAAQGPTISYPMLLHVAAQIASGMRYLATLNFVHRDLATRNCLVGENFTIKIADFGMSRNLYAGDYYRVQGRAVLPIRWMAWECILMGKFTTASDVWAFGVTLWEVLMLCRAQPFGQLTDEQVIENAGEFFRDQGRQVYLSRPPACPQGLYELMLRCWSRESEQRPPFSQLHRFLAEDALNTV
T1 sequence (Q08345 19-913): as above

Q: What does the source list for O=C1CN(c2cncc(C(F)(F)F)c2)C(=O)N1[C@H]1CC[C@H](Oc2ncnc3[nH]ccc23)CC1 (stereo in doubt) [Example 3(17), 3-[trans-4-(7H-pyrrolo[2,3-d]pyrimidin-4-yloxy)cyclohexyl]-1-[5-(trifluoromethyl)-3-pyridinyl]-2,4-imidazolidinedione]?
A: IC50 (DDR1): 5 nM; IC50 [1]: 9 nM

Q: With CS(=O)(=O)c1cc(N2CC(=O)N(c3ccc(Oc4cnc5[nH]ncc5c4)cc3)C2=O)cc(C(F)(F)F)c1 [Example 1(28), 1-[3-(methylsulfonyl)-5-(trifluoromethyl)phenyl]-3-[4-(1H-pyrazolo[3,4-b]pyridin-5-yloxy)phenyl]-2,4-imidazolidinedione] as the compound, how does the IC50 (DDR1) read?
A: 2 nM

Q: And the IC50 [1]?
A: 2 nM

Q: How did the IC50 (DDR1) turn out when Nc1ncc(Oc2ccc(N3C(=O)CN(c4cncc(C(F)(F)F)c4)C3=O)cc2)cn1 [Example 1, 3-{4-[(2-amino-5-primidinyl)oxy]phenyl}-1-[5-(trifluoromethyl)-3-pyridinyl]-2,4-imidazolidinedione] was run?
A: 3 nM

Q: And the IC50 [1]?
A: 2 nM

Q: Which IC50 (DDR1) does the source give for COc1cc2nccc(Oc3ccc(N4C(=O)CN(c5cncc(C(F)(F)F)c5)C4=O)cc3C3CN(C(=O)OC(C)(C)C)C3)c2cc1OC [Example 2(2), 2-methyl-2-propanyl 3-(2-[(6,7-dimethoxy-4-quinolinyl)oxy]-5-{2,5-dioxo-3-[5-(trifluoromethyl)-3-pyridinyl]-1-imidazolidinyl}phenyl)-1-azetidinecarboxylate] here?
A: 200 nM

Q: And the IC50 [1]?
A: 50 nM

Q: Which IC50 (DDR1) does the source give for CC(C)c1cc(N2C(=O)CN(c3cc(C(F)(F)F)cn(C)c3=O)C2=O)ccc1Oc1ccnc2cc(OCCCS(C)(=O)=O)ccc12 [Example 2(6), 3-[3-isopropyl-4-({7-[3-(methylsulfonyl)propoxy]-4-quinolinyl}oxy)phenyl]-1-[1-methyl-2-oxo-5-(trifluoromethyl)-1,2-dihydro-3-pyridinyl]-2,4-imidazolidinedione] here?
A: 10 nM

Q: What about the IC50 [1] of the same compound?
A: 6 nM

Q: For COc1ccc2c(O[C@H]3CC[C@H](N4C(=O)CN(c5cncc(C(F)(F)F)c5)C4=O)CC3)ncnc2c1 [Example 2(19), 3-{trans-4-[(7-methoxy-4-quinazolinyl)oxy]cyclohexyl}-1-[5-(trifluoromethyl)-3-pyridinyl]-2,4-imidazolidinedione], which IC50 (DDR1) is on record?
A: 3 nM

Q: And the IC50 [1]?
A: 1 nM

Q: With O=C1CN(c2cc(F)cc(C(F)(F)F)c2)C(=O)N1[C@H]1CC[C@H](Oc2cnc3ccsc3c2)CC1 [Example 2(125), 1-[3-fluoro-5-(trifluoromethyl)phenyl]-3-[trans-4-(thieno[3,2-b]pvridin-6-yloxy)cyclohexyl]-2,4-imidazolidinedione] as the compound, how does the IC50 (DDR1) read?
A: 20 nM

Q: What about the IC50 [1] of the same compound?
A: 5 nM

Q: Nc1nccc(Nc2ccc(N3C(=O)CN(c4cccc(OC(F)(F)F)c4)C3=O)cc2Br)c1N [Example 2(163), 3-{3-bromo-4-[(2,3-diamino-4-pyridinyl)amino]phenyl}-1-[3-(trifluoromethoxy)phenyl]-2,4-imidazolidinedione] was tested. Which IC50 [1] did it give?
A: 6 nM

Q: Which IC50 (DDR1) does the source give for CCc1cc(N2C(=O)N(c3cncc(C(F)(F)F)c3)CC2O)ccc1Oc1ccnc2[nH]c(=O)cnc12 (centres unmarked) [Example 5(46), 8-(2-ethyl-4-{5-hydroxy-2-oxo-3-[5-(trifluoromethyl)-3-pyridinyl]-1-imidazolidinyl}phenoxy)pyrido[2,3-b]pyrazin-3(4H)-one] here?
A: 2 nM

Q: How did the IC50 (DDR1) turn out when C=Cc1cc(N2C(=O)CN(c3cncc(C(F)(F)F)c3)C2=O)ccc1N1CCCc2cnccc21 [Example 8(1), 3-[4-(3,4-dihydro-1,6-naphthyridin-1(2H)-yl)-3-vinylphenyl]-1-[5-(trifluoromethyl)-3-pyridinyl]-2,4-imidazolidinedione] was run?
A: 80 nM

Q: For O=C1CN(c2cncc(C(F)(F)F)c2)C(=O)N1c1ccc(N2CCCc3cnccc32)c(Br)c1 [Example 8, 3-[3-bromo-4-(3,4-dihydro-1,6-naphthyridin-1(2H)-yl)phenyl]-1-[5-(trifluoromethyl)-3-pyridinyl]-2,4-imidazolidinedione], which IC50 [1] is on record?
A: 70 nM

Q: CC(c1ccnc2[nH]ccc12)N1CCC(N2C(=O)CN(c3cncc(C(F)(F)F)c3)C2=O)CC1 (centres unmarked) [Example 10(1), 3-{1-[1-(1H-pyrrolo[2,3-b]pyridin-4-yl)ethyl]-4-piperidinyl}-1-[5-(trifluoromethyl)-3-pyridinyl]-2,4-imidazolidinedione] was tested. Which IC50 [1] did it give?
A: 10 nM

Q: Which IC50 (DDR1) does the source give for COc1ccc2c(CN3CCC(N4C(=O)CN(c5cncc(C(F)(F)F)c5)C4=O)CC3)ccnc2c1 [Example 10, 3-{1-[(7-methoxy-4-quinolinyl)methyl]-4-piperidinyl}-1-[5-(trifluoromethyl)-3-pyridinyl]-2,4-imidazolidinedione] here?
A: 60 nM

Q: Which IC50 [1] does the source give for O=C1CN(c2cncc(C(F)(F)F)c2)C(=O)N1[C@H]1CC[C@H](Oc2cnc3[nH]nc(OCCO)c3c2)CC1 [Example 36(7), 3-(trans-4-{[3-(2-hydroxyethoxy)-1H-pyrazolo[3,4-b]pyridin-5-yl]oxy}cyclohexyl)-1-[5-(trifluoromethyl)-3-pyridinyl]-2,4-imidazolidinedione] here?
A: 0.1 nM

Q: For CC(C)(O)c1cc2c(OC34CCC(N5C(=O)CN(c6cncc(C(F)(F)F)c6)C5=O)(CC3)C4)ncnc2[nH]1 [Example 39, 3-(4-{[6-(2-hydroxy-2-propanyl)-7H-pyrrolo[2,3-d]pyrimidin-4-yl]oxy}bicyclo[2.2.1]hept-1-yl)-1-[5-(trifluoromethyl)-3-pyridinyl]-2,4-imidazolidinedione trifluoroacetate (1:1)], which IC50 [1] is on record?
A: 10 nM

Q: With O=C1CN(c2cncc(C(F)(F)F)c2)C(=O)N1C12CCC(Oc3ncnc4[nH]cc(Cl)c34)(CC1)C2 [Example 42(2), 3-{4-[(5-chloro-7H-pyrrolo[2,3-d]pyrimidin-4-yl)oxy]bicyclo[2.2.1]hept-1-yl}-1-[5-(trifluoromethyl)-3-pyridinyl]-2,4-imidazolidinedione] as the compound, how does the IC50 [1] read?
A: 20 nM

Q: For N#Cc1cncc(N2CC(=O)N(C34CCC(Oc5ncnc6[nH]ccc56)(CC3)C4)C2=O)c1 [Example 42(7), 5-{2,4-dioxo-3-[4-(7H-pyrrolo[2,3-d]pyrimidin-4-yloxy)bicyclo[2.2.1]hept-1-yl]-1-imidazolidinyl}nicotinonitrile], which IC50 [1] is on record?
A: 200 nM

Q: How did the IC50 [1] turn out when N#Cc1cccc(N2CC(=O)N(C34CCC(Oc5ncnc6[nH]ccc56)(CC3)C4)C2=O)c1 [Example 42(9), 3-{2,4-dioxo-3-[4-(7H-pyrrolo[2,3-d]pyrimidin-4-yloxy)bicyclo[2.2.1]hept-1-yl]-1-imidazolidinyl}benzonitrile] was run?
A: 20 nM

Q: Which IC50 [1] does the source give for O=C1CN(c2cncc(C(F)(F)F)c2)C(=O)N1C12CCC(Oc3ccnc4[nH]ncc34)(CC1)C2 [Example 43, 3-[4-(1H-pyrazolo[3,4-b]pyridin-4-yloxy)bicyclo[2.2.1]hept-1-yl]-1-[5-(trifluoromethyl)-3-pyridinyl]-2,4-imidazolidinedione] here?
A: 6 nM

— patent US20220306640A1, “HYDANTOIN DERIVATIVE” (ONO PHARMACEUTICAL CO., LTD., priority 2019, published 2022)
